Activity calls are given as the source filed them. The rule behind the calls is not given here.
test system: Influenza A virus; test: Antiviral activity against Influenza A virus (A/Puerto Rico/8/34(H1N1)) harboring H274Y mutant infected in MDCK cells assessed as inhibition of virus-induced cytopathic effect after 48 hrs by MTT assay; assay type: functional, organism-based; conditions: A/Puerto Rico/8/1934(H1N1)

| Structure (SMILES) | inhibition |
| --- | --- |
| COc1cc2c(c(O)c1OC)C(=O)O[C@@H]1C[C@H](CCC(=O)O)O[C@H]21 | inactive |
| CCC(O)Cc1c(OC)cc(=O)oc1C (configuration not stated) | inactive |
| COc1cc(=O)oc(C)c1CCC(C)O (configuration not stated) | inactive |
| CCCCc1c(OC)cc(=O)oc1C | inactive |
| COc1cc2c(c(O)c1OC)C(=O)O[C@@H]1C[C@H](CCCO)O[C@H]21 | inactive |
| CCCCC1=C(OC)C(=O)OC1(C)O (racemic) | inactive |
| CCC[C@H]1C[C@H](O)[C@@]2(OC(=O)c3c2cc(OC)c(OC)c3O)O1 | inactive |
| CCCC(=O)CC[C@@H]1OC(=O)c2c1cc(OC)c(OC)c2O | inactive |
| COC(=O)CCCc1c(OC)cc(=O)oc1C | inactive |
| CCC[C@H]1C[C@H]2OC(=O)c3c(cc(OC)c(OC)c3O)[C@@H]2O1 | inactive |
| CC[C@@H](O)[C@H]1C[C@H]2OC(=O)c3c(cc(OC)c(OC)c3O)[C@H]2O1 | inactive |
| COc1cc2c(c(O)c1OC)C(=O)O[C@@H]1C[C@H](C[C@@H](C)O)O[C@H]21 | inactive |
| CCC[C@@H]1C[C@H]2OC(=O)c3c(cc(O)c(OC)c3O)[C@@H]2O1 | inactive |
| COc1cc(=O)oc(C)c1CCCC(=O)O | inactive |
| CCC[C@@H]1C[C@H]2OC(=O)c3c(cc(OC)c(OC)c3O)[C@@H]2O1 | inactive |
| CC[C@H](O)[C@H]1C[C@H]2OC(=O)c3c(cc(OC)c(OC)c3O)[C@H]2O1 | inactive |
| COCc1c(O)cc(C)c2c1Oc1c(C)cc(O)c(C)c1OC2=O | inactive |
| CCC[C@H]1C[C@H](O)[C@]2(OC(=O)c3c2cc(OC)c(OC)c3O)O1 | inactive |
| CCCC(=O)CC[C@H]1OC(=O)c2c1cc(O)c(OC)c2O | inactive |
| CCCCOCc1c(O)cc(C)c2c1Oc1c(C)cc(O)c(C)c1OC2=O | inactive |
| CCC[C@H]1C[C@H]2OC(=O)c3c(cc(OC)c(O)c3O)[C@H]2O1 | inactive |
| CCCCc1c(OC)cc(=O)oc1CO | inactive |

Source: ChEMBL document CHEMBL4196140, “Spiro-Phthalides and Isocoumarins Isolated from the Marine-Sponge-Derived Fungus Setosphaeria sp. SCSIO41009” (J Nat Prod, 2018)
